From US20220241249A1, “PHARMACEUTICAL COMPOSITION AND KIT CONTAINING NOVEL PENAM DERIVATIVE OR SALT THEREOF AND ONE OR MORE COMPOUNDS SELECTED FROM beta-LACTAMASE INHIBITORY COMPOUND AND ANTIBACTERIAL COMPOUND OR SALTS THEREOF” (priority 2019, published 2022) come the findings set out here.

Values after ≈ are worked out from the molar mass of the structure shown. Where two headings read alike, the source gives them in different places. Bounds are passed on as bounds.

Assay type in all cases: cell-based
Assay [1] concerns Klebsiella pneumoniae Y-1133 strain producing NDM-1, OXA-48, and CTX-M-15 (strain C). Description: MIC of test compound alone or with β-lactamase inhibitor at 4 μg/mL. Here is the method: (§1) By using a broth microdilution method, the combinational effect of a test compound and a β-lactamase inhibitor was evaluated.
(§2) The evaluation test for antibacterial activity was performed in the same manner as in Test Example 1.
Klebsiella pneumoniae Y-1133 strain producing NDM-1, OXA-48, and CTX-M-15 (hereinafter, called strain C),
(§3) An antibacterial activity evaluation test was performed in the same manner as in Test Example 6.
(§4) As the bacterial strain, the strains B, C, and D producing β-lactamase and a Klebsiella pneumoniae Y-1069 strain (hereinafter, called strain F) producing OXA-48 and CTX-M-15 were used.

In assay [2] the test system is Escherichia coli TK-1765 strain producing CMY-2 (strain E). Described as above. Here is the method:
as §1, §2
Escherichia coli TK-1765 strain producing CMY-2 (hereinafter, called strain E)

Assay [3] has as its system Klebsiella pneumoniae Y-1020 strain producing KPC-3 and SHV-12 (strain B). The description is as above. The settings on record: for MIC: Strain B. Here is the method:
as §1, §2

Assay [4] concerns Escherichia coli TK-3113 strain producing IMP-8 (strain D). The description is as above. Here is the method:
as §1, §2
Escherichia coli TK-3113 strain producing IMP-8 (hereinafter, called strain D),
as §3, §4

The subject of assay [5] is Escherichia coli TK-1747 strain producing CTX-M-15 (strain A). The description is as above. The conditions noted are these: Escherichia coli, test compound alone (β-lactamase inhibitor N/A), read-out: MIC. Here is the method: as §1, §2
Escherichia coli TK-1747 strain producing CTX-M-15 (hereinafter, called strain A),

For assay [6], the system named is Pseudomonas aeruginosa strain ATCC27853. Description: Antibacterial activity evaluation test, MIC by broth microdilution (CLSI). The procedure, abridged:
(§5)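 MIC (μg/mL) = lowest drug concentration showing no visible bacterial growth after 16–20 h at 35° C. in cation-adjusted Mueller Hinton broth. Inoculum: agar-grown cells at 0.5 McFarland, diluted 10-fold.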

The test system of assay [7] is VIM-2-containing Pseudomonas aeruginosa strain (S-3779). The description is as above. The procedure, abridged:
as §5

The subject of assay [8] is OXA-48-containing Klebsiella pneumoniae strain (Y-1062). Described as above. The procedure, abridged: as §5
Assay [9] deals with GES-19 and GES-20-containing Pseudomonas aeruginosa strain (S-3759). The assay is described as above. The procedure, abridged:
as §5

In assay [10] the test system is AmpC-derepressed Pseudomonas aeruginosa mutant strain (S-3028). The description is as above. In short, it runs like this: as §5
The test system of assay [11] is CTX-M-15-containing Escherichia coli strain (TK-1747). The description is as above. The procedure, abridged: as §5
The subject of assay [12] is IMP-1-containing Pseudomonas aeruginosa strain (S-2838). Described as above. The procedure, abridged:
as §5

Assay [13] deals with KPC-2-containing Klebsiella pneumoniae strain (Y-995). The description is as above. In short, it runs like this:
as §5

In assay [14] the test system is NDM-1-containing Klebsiella pneumoniae strain (Y-1007). The description is as above. The procedure, abridged:
as §5

The mark [15] stands for this setting: test compound alone (β-lactamase inhibitor N/A).
[16] abbreviates: Pseudomonas aeruginosa, ATCC27853.

Consider `CC(C)(O/N=C(\C(=O)N[C@@H]1C(=O)N2C[C@@](C(=O)O)(N3CCN(NC(=O)C(=O)c4ccc(O)c(O)c4Cl)C3=O)S[C@H]12)c1nc(N)sc1Cl)C(=O)O` [Compound D], for which the MIC in [1] (AVI added at 4 μg/mL) was 0.12 µg/mL; in assay [1] (NAC added at 4 μg/mL), below 0.015 µg/mL; in assay [1] (ZID added at 4 μg/mL), below 0.015 µg/mL; in assay [1] (setting [15]), 0.5 µg/mL; in assay [2] (setting [15]), 0.5 µg/mL; in assay [2] (with AVI at 4 μg/mL), 0.03 µg/mL. Moreover, the MIC in assay [2] (with CVA at 4 μg/mL) is 0.25 µg/mL; in [2] (with SBT at 4 μg/mL), 0.25 µg/mL; in assay [2] (with TAZ at 4 μg/mL), 0.06 µg/mL; in [2] (with VAB at 4 μg/mL), 0.12 µg/mL; in assay [3] (AVI added at 4 μg/mL) it was 0.25 µg/mL; in assay [3] (NAC added at 4 μg/mL), below 0.015 µg/mL. The MIC was below 0.015 µg/mL in assay [3] (ZID added at 4 μg/mL); 2 µg/mL in assay [3] (setting [15]); 0.5 µg/mL in assay [4] (AVI added at 4 μg/mL); 0.06 µg/mL in assay [4] (NAC added at 4 μg/mL); 0.03 µg/mL in assay [4] (ZID added at 4 μg/mL); 1 µg/mL in assay [4] (setting [15]). Besides, in assay [3] (for all the bacterial strains (strains A to E), summary of Tables 43 to 47), the “antibacterial activity in combination with a β-lactamase inhibitor versus without” value is on record as “higher antibacterial activity”.
Take `CC(C)(O/N=C(\C(=O)N[C@@H]1C(=O)N2C(C(=O)[O-])=C(C[n+]3ccccc3)CS[C@H]12)c1csc(N)n1)C(=O)O` [CAZ, ceftazidime hydrate, reference compound]: the MIC in assay [4] (Escherichia coli, AVI added at 4 μg/mL) is above 128 µg/mL; in assay [4] (Escherichia coli, test compound alone (β-lactamase inhibitor N/A)), above 128 µg/mL.
Regarding `CO/N=C(\C(=O)N[C@@H]1C(=O)N2C(C(=O)O)=C(COC(C)=O)CS[C@H]12)c1csc(N)n1` [CTX, cefotaxime sodium, reference compound], the MIC in assay [5] is above 128 µg/mL.
Consider `CC(C)(O/N=C(\C(=O)N[C@@H]1C(=O)N2C[C@@](C(=O)O)(N3CC(=O)N(NC(=O)C(=O)c4ccc(O)c(O)c4Cl)CC3=O)S[C@H]12)c1csc(N)n1)C(=O)O` [Example 82, (3R,5R,6R)-6-((Z)-2-(2-aminothiazol-4-yl)-2-(((2-carboxypropan-2-yl)oxy)imino)acetamido)-3-(4-(2-(2-chloro-3,4-dihydroxyphenyl)-2-oxoacetamido)-2,5-dioxopiperazin-1-yl)-7-oxo-4-thia-1-azabicyclo[3.2.0]heptane-3-carboxylic acid], for which the minimum inhibitory concentration (MIC) in assay [6] (setting [16]) was 0.5 µg/mL (≈ 0.65 µM); in assay [7] (Pseudomonas aeruginosa) it was 1 µg/mL (≈ 1.3 µM); in assay [8] (Klebsiella pneumoniae), 2 µg/mL (≈ 2.6 µM); in [9] (Pseudomonas aeruginosa), 2 µg/mL (≈ 2.6 µM); in assay [10] (Pseudomonas aeruginosa), 4 µg/mL (≈ 5.2 µM); in assay [11] (Escherichia coli) it was 1 µg/mL (≈ 1.3 µM). Further, the values for the MIC in assay [12] (Pseudomonas aeruginosa), in assay [13] (Klebsiella pneumoniae) and in assay [14] (Klebsiella pneumoniae) were 4 µg/mL (≈ 5.2 µM), 4 µg/mL (≈ 5.2 µM) and 0.5 µg/mL (≈ 0.65 µM), respectively.
`CC(C)(O/N=C(\C(=O)NC1C(=O)N2C[C@@](C(=O)O)(N3CCN(NC(=O)NNC(=O)C(=O)c4ccc(O)c(O)c4Cl)C3=O)S[C@H]12)c1csc(N)n1)C(=O)O` (stereo partly shown) [Example 153]: the Antibacterial activity (MIC) Pseudomonas aeruginosa ATCC 27853 in assay [6] (setting [16]) was 0.5 µg/mL. Besides, in assay [7] (Pseudomonas aeruginosa S-3779), the Antibacterial activity (MIC) Pseudomonas aeruginosa S-3779 stood at 1 µg/mL. The molecule further had an Antibacterial activity (MIC) Klebsiella pneumoniae Y-1062 in [8] (Klebsiella pneumoniae Y-1062) of 4 µg/mL. For the same molecule, the Antibacterial activity (MIC) Pseudomonas aeruginosa S-3759 in assay [9] (Pseudomonas aeruginosa S-3759) worked out at 2 µg/mL. The Antibacterial activity (MIC) Pseudomonas aeruginosa S-3028 in [10] (Pseudomonas aeruginosa S-3028) was 0.12 µg/mL. The Antibacterial activity (MIC) Escherichia coli TK-1747 in assay [11] (Escherichia coli TK-1747) turned out to be 0.5 µg/mL. In [12] (Pseudomonas aeruginosa S-2838), this molecule yielded an Antibacterial activity (MIC) Pseudomonas aeruginosa S-2838 of 0.5 µg/mL. The same molecule showed an Antibacterial activity (MIC) Klebsiella pneumoniae Y-995 in assay [13] (Klebsiella pneumoniae Y-995) of 0.25 µg/mL. In addition, the Antibacterial activity (MIC) Klebsiella pneumoniae Y-1007 in assay [14] (Klebsiella pneumoniae Y-1007) was below 0.06 µg/mL.
On to `CC(C)(O/N=C(\C(=O)N[C@@H]1C(=O)N2C[C@@](C(=O)O)(N3CCN(NC(=O)C(=O)N(O)CCNC(=O)c4ccc(O)c(O)c4Cl)C3=O)S[C@H]12)c1csc(N)n1)C(=O)O` [Example 104, (3R,5R,6R)-6-((Z)-2-(2-aminothiazol-4-yl)-2-(((2-carboxypropan-2-yl)oxy)imino)acetamido)-3-(3-(2-((2-(2-chloro-3,4-dihydroxybenzamido)ethyl)(hydroxy)amino)-2-oxoacetamido)-2-oxoimidazolidin-1-yl)-7-oxo-4-thia-1-azabicyclo[3.2.0]heptane-3-carboxylic acid], for which the MIC in assay [6] (ATCC27853, Pseudomonas aeruginosa ATCC 27853, 35° C., 16 to 20 hours, read-out: MIC) came to 2 µg/mL (≈ 2.37 µM); in [7] (Pseudomonas aeruginosa) it was 1 µg/mL (≈ 1.19 µM); in assay [8] (Klebsiella pneumoniae), 2 µg/mL (≈ 2.37 µM); in [9] (Pseudomonas aeruginosa), 4 µg/mL (≈ 4.74 µM); in [10] (Pseudomonas aeruginosa), 2 µg/mL (≈ 2.37 µM); in assay [11] (Escherichia coli), 1 µg/mL (≈ 1.19 µM). Besides, the MIC in assay [12] (Pseudomonas aeruginosa) was 0.5 µg/mL (≈ 0.593 µM); in [13] (Klebsiella pneumoniae), 2 µg/mL (≈ 2.37 µM); in assay [14] (Klebsiella pneumoniae), below 0.06 µg/mL.
For the molecule `Nc1nc(/C(=N/OC2(C(=O)O)CC2)C(=O)N[C@@H]2C(=O)N3C[C@@](C(=O)O)(N4CCN(NC(=O)CCNC(=O)C(=O)c5ccc(O)c(O)c5Cl)C4=O)S[C@H]23)c(Cl)s1` [Example 107, (3R,5R,6R)-6-((Z)-2-(2-amino-5-chlorothia-zol-4-yl)-2-((1-carboxy-cyclopropoxy)imino)-acetamido)-3-(3-(3-(2-(2-chloro-3,4-dihydroxy-phenyl)-2-oxoaceta-mido)proanamido)-2-oxoimidazolidin-1-yl)-7-oxo-4-thia-1-aza-bicyclo[3.2.0]heptane-3-carboxylic acid], the MIC was 0.25 µg/mL (≈ 0.296 µM) in [6] (Pseudomonas aeruginosa ATCC 27853, 35° C., 16 to 20 hours); 0.25 µg/mL (≈ 0.296 µM) in assay [7] (Pseudomonas aeruginosa S-3779, 35° C., 16 to 20 hours); 0.25 µg/mL (≈ 0.296 µM) in assay [8] (Klebsiella pneumoniae Y-1062, 35° C., 16 to 20 hours); 0.5 µg/mL (≈ 0.592 µM) in assay [9] (Pseudomonas aeruginosa S-3759, 35° C., 16 to 20 hours); 2 µg/mL (≈ 2.37 µM) in [10] (Pseudomonas aeruginosa S-3028, 35° C., 16 to 20 hours); 0.25 µg/mL (≈ 0.296 µM) in assay [11] (Escherichia coli TK-1747, 35° C., 16 to 20 hours). Moreover, the MIC in [12] (Pseudomonas aeruginosa S-2838, 35° C., 16 to 20 hours) is 0.5 µg/mL (≈ 0.592 µM); in assay [13] (Klebsiella pneumoniae Y-995, 35° C., 16 to 20 hours), 2 µg/mL (≈ 2.37 µM); in assay [14] (Klebsiella pneumoniae Y-1007, 35° C., 16 to 20 hours), below 0.06 µg/mL.
Regarding `CC(C)(O/N=C(\C(=O)N[C@@H]1C(=O)N2C[C@@](C(=O)O)(N3CC[C@H](NC(=O)C(=O)c4ccc(O)c(O)c4Cl)C3=O)S[C@H]12)c1csc(N)n1)C(=O)O` [Example 84, (3R,5R,6R)-6-((Z)-2-(2-aminothiazol-4-yl)-2-(((2-carboxypropan-2-yl)oxy)imino)acetamido)-3-((S)-3-(2-(2-chloro-3,4-dihydroxyphenyl)-2-oxoacetamido)-2-oxopyrrolidin-1-yl)-7-oxo-4-thia-1-azabicyclo[3.2.0]heptane-3-carboxylic acid], the minimum inhibitory concentration (MIC) was 0.5 µg/mL (≈ 0.676 µM) in [6] (setting [16]); 0.5 µg/mL (≈ 0.676 µM) in [7] (Pseudomonas aeruginosa); below 0.06 µg/mL in assay [8] (Klebsiella pneumoniae); 1 µg/mL (≈ 1.35 µM) in assay [9] (Pseudomonas aeruginosa); 0.5 µg/mL (≈ 0.676 µM) in assay [10] (Pseudomonas aeruginosa); below 0.06 µg/mL in assay [11] (Escherichia coli). Further, the values for the MIC in assay [12] (Pseudomonas aeruginosa), in [13] (Klebsiella pneumoniae) and in assay [14] (Klebsiella pneumoniae) were 0.5 µg/mL (≈ 0.676 µM), 0.5 µg/mL (≈ 0.676 µM) and below 0.06 µg/mL, respectively.
